Literature values in article PMC2796340 (Journal of the American Chemical Society, 2009).

Target: T1, Gal80 (Saccharomyces cerevisiae, UniProt P04387)
T1 sequence (P04387 1-435): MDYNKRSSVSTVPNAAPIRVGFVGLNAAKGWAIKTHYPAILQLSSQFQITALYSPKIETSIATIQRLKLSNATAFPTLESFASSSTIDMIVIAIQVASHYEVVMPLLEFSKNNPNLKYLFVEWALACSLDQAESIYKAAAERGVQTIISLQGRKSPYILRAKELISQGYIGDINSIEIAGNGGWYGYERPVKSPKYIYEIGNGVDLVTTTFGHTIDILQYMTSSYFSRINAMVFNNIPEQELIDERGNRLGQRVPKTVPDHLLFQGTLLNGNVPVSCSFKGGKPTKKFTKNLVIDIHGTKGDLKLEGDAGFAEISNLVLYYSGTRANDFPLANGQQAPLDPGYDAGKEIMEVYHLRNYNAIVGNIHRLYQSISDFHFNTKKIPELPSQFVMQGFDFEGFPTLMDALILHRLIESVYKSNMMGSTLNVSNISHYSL
Conditions: synthetic Gal4 activation domain peptide; ref [20]

MDQTAYNAFGITTGMFNTTTMD DVYNYLFDDEDT [Gal4 AD]
binding to the Gal80 repressor site: binds the Gal80 repressor site with high affinity
